Legend:
[1] = biological target: T1, human TDO (TDO-expressing HEK293 cells) (Homo sapiens, UniProt P48775); test: Cell based kynurenine assay, TDO-expressing HEK293 cell clones; details: TDO-expressing HEK293 cells, 24 hours incubation; geometric mean; read-out: HEK293 TDO Kynurenine GMean IC50 (μM) (Cellular Assay)
T1 construct: expressed in transfected cells
Summary of the method: (§1)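 HEK293 clones stably expressing human IDO1 or human TDO (CMV promoter), 2.5×10^4 cells/well, given serial compound dilutions for 24 h. Kynurenine measured in supernatant; inhibition relative to cell/0.2% DMSO and media-only controls. IC50 by nonlinear regression.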

[2] = biological target: T2, Human Indoleamine 2,3-dioxygenase (IDO) (Homo sapiens, UniProt P14902); test: Human IDO enzymatic assay (kynurenine level); assay type: biochemical; details: 6 nM IDO, 10 μM L-Trp; geometric mean; read-out: IDO1 GMean: IC50 (μM) (Biochemical Assay)
T2 construct: His tag (N); made in house; host or cells: E. coli
T2 sequence (P14902 whole entry): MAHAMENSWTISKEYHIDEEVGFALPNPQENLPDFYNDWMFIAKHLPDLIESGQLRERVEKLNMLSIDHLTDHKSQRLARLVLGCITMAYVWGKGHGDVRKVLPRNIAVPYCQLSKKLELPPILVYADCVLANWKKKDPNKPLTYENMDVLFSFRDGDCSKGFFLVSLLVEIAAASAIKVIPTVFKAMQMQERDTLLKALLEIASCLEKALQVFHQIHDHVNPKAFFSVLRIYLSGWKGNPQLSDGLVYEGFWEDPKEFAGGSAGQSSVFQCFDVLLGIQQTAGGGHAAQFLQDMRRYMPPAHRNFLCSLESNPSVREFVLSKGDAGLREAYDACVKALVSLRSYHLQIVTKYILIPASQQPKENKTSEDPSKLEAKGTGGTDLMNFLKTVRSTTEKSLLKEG
Summary of the method: (§2)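 Compound is mixed with His-tagged enzyme from E. coli in pH 6.5 phosphate buffer containing ascorbate, methylene blue and catalase, at room temperature. IDO uses 6 nM enzyme and 10 μM Trp for 20 min. TDO uses 1 nM enzyme and 350 μM Trp for 70 min. TCA stops the reaction, and IC50 is derived from kynurenine levels.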

[3] = biological target: T3, Human Tryptophan 2,3-dioxygenase (TDO) (Homo sapiens, UniProt P48775); test: Human TDO enzymatic assay (kynurenine level); assay type: biochemical; details: 1 nM TDO, 350 μM L-Trp; geometric mean; read-out: TDO GMean: IC50 (μM) (Biochemical Assay)
T3 construct: His tag (N); made in house; host or cells: E. coli
T3 sequence (P48775 whole entry): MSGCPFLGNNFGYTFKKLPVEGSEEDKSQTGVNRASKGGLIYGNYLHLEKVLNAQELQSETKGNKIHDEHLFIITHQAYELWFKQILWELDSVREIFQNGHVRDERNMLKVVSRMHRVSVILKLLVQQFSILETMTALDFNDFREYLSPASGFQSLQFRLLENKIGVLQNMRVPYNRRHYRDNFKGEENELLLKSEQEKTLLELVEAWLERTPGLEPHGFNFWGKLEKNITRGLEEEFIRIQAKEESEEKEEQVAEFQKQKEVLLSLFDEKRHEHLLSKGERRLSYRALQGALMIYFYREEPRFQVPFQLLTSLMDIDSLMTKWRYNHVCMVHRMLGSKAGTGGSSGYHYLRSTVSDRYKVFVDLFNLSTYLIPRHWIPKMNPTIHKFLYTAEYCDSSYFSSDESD
Summary of the method: as §2

[4] = biological target: T4, human IDO (IDO1-expressing HEK293 cells) (Homo sapiens, UniProt P14902); test: Cell based kynurenine assay, IDO1-expressing HEK293 cell clones; details: IDO1-expressing HEK293 cells, 24 hours incubation; geometric mean; read-out: HEK293 IDO1 Kynurenine GMean IC50 (μM) (Cellular Assay)
T4 construct: expressed in transfected cells
T4 sequence (P14902 whole entry): as the sequence (P14902 whole entry) above
Summary of the method: as §1

T1 sequence (P48775 whole entry): as the sequence (P48775 whole entry) above

Row | Compound | IC50 [1] [µM] | IC50 [2] [µM] | IC50 [3] [µM] | IC50 [4] [µM]
1 | CCCNC(=O)N1CCC(C(C)(C)C(O)c2cc(Cl)cc3cn[nH]c23)CC1 (stereo not drawn) [Compound P-0355, 4-(1-(5-chloro-1H-indazol-7-yl)-1-hydroxy-2-methylpropan-2-yl)-N-propylpiperidine-1-carboxamide] | 0.0001 to 10 | 0.0001 to 10 | 0.0001 to 10 | 0.0001 to 10
2 | CC(C)(C)NC(=O)N1CCC(C(C)(C)C(O)c2cc(Cl)cc3cn[nH]c23)CC1 (stereo not drawn) [Compound P-0356, N-(tert-butyl)-4-(1-(5-chloro-1H-indazol-7-yl)-1-hydroxy-2-methylpropan-2-yl)piperidine-1-carboxamide] | 0.0001 to 10 | 0.0001 to 10 | 0.0001 to 10 | 0.0001 to 10
3 | COCCCNC(=O)N1CCC(C(C)(C)C(O)c2cc(Cl)cc3cn[nH]c23)CC1 (stereo not drawn) [Compound P-0357, 4-(1-(5-chloro-1H-indazol-7-yl)-1-hydroxy-2-methyipropan-2-yl)-N-(3-methoxypropyl) piperidine-1-carboxamide] | 0.0001 to 10 | 0.0001 to 10 | 0.0001 to 10 | 0.0001 to 10
4 | CC(C)(C1CCN(C(=O)Nc2cccnc2)CC1)C(O)c1cc(Cl)cc2cn[nH]c12 (stereo not drawn) [Compound P-0358, 4-(1-(5-chloro-1H-indazol-7-yl)-1-hydroxy-2-methylpropan-2-yl)-N-(pyridin-3-yl)piperidine-1-carboxamide] | 0.0001 to 10 | 0.0001 to 10 | 0.0001 to 10 | 0.0001 to 10
5 | CC(C)(C1CCN(C(=O)Nc2cccc(F)c2)CC1)C(O)c1cc(Cl)cc2cn[nH]c12 (stereo not drawn) [Compound P-0359, 4-(1-(5-chloro-1H-indazol-7-yl)-1-hydroxy-2-methylpropan-2-yl)-N-(3-fluorophenyl) piperidine-1-carboxamide] | 0.0001 to 10 | 0.0001 to 10 | 0.0001 to 10 | 0.0001 to 10
6 | CC(C)(C1CCN(C(=O)Nc2cccc(C#N)c2)CC1)C(O)c1cc(Cl)cc2cn[nH]c12 (stereo not drawn) [Compound P-0360, 4-(1-(5-chloro-1H-indazol-7-yl)-1-hydroxy-2-methylpropan-2-yl)-N-(3-cyanophenyl) piperidine-1-carboxamide] | 0.0001 to 10 | 0.0001 to 10 | 0.0001 to 10 | 0.0001 to 10
7 | CC(C)(C1CCN(C(=O)Nc2ccc(Cl)cc2)CC1)C(O)c1cc(Cl)cc2cn[nH]c12 (stereo not drawn) [Compound P-0361, 4-(1-(5-chloro-1H-indazol-7-yl)-1-hydroxy-2-methylpropan-2-yl)-N-(4-chlorophenyl) piperidine-1-carboxamide] | 0.0001 to 10 | 0.0001 to 10 | 0.0001 to 10 | 0.0001 to 10
8 | CC(C)(C1CCN(C(=O)c2cccnc2)CC1)C(O)c1cc(Cl)cc2cn[nH]c12 (stereo not drawn) [Compound P-0362, (4-(1-(5-chloro-1H-indazol-7-yl)-1-hydroxy-2-methylpropan-2-yl)piperidin-1-yl)(pyridin-3-yl)methanone] | 0.0001 to 10 | 0.0001 to 10 | 0.0001 to 10 | 0.0001 to 10
9 | CC(C)(C1CCN(C(=O)c2ccc(C(F)(F)F)nc2)CC1)C(O)c1cc(Cl)cc2cn[nH]c12 (stereo not drawn) [Compound P-0363, (4-(1-(5-chloro-1H-indazol-7-yl)-1-hydroxy-2-methylpropan-2-yl)piperidin-1-yl)(6-(trifluoromethyl)pyridin-3-yl)methanone] | 0.0001 to 10 | 0.0001 to 10 | 0.0001 to 10 | 0.0001 to 10
10 | CC(C)(C1CCN(C(=O)c2ccccc2F)CC1)C(O)c1cc(Cl)cc2cn[nH]c12 (stereo not drawn) [Compound P-0364, (4-(1-(5-chloro-1H-indazol-7-yl)-1-hydroxy-2-methylpropan-2-yl)piperidin-1-yl)(2-fluorophenyl) methanone] | 0.0001 to 10 | 0.0001 to 10 | 0.0001 to 10 | 0.0001 to 10
11 | CC(C)(C1CCN(C(=O)c2ccccn2)CC1)C(O)c1cc(Cl)cc2cn[nH]c12 (stereo not drawn) [Compound P-0365, (4-(1-(5-chloro-1H-indazol-7-yl)-1-hydroxy-2-methylpropan-2-yl)piperidin-1-yl)(pyridin-2-yl)methanone] | 0.0001 to 10 | 0.0001 to 10 | 0.0001 to 10 | 0.0001 to 10
12 | CC(C)(C1CCN(C(=O)c2ccccc2C(F)(F)F)CC1)C(O)c1cc(Cl)cc2cn[nH]c12 (stereo not drawn) [Compound P-0366, (4-(1-(5-chloro-1H-indazol-7-yl)-1-hydroxy-2-methylpropan-2-yl)piperidin-1-yl)(2-(trifluoromethyl)phenyl)methanone] | 0.0001 to 10 | 0.0001 to 10 | 0.0001 to 10 | 0.0001 to 10
13 | CC(C)(C1CCN(C(=O)c2ccc(N3CCOCC3)nc2)CC1)C(O)c1cc(Cl)cc2cn[nH]c12 (stereo not drawn) [Compound P-0367, (4-(1-(5-chloro-1H-indazol-7-yl)-1-hydroxy-2-methylpropan-2-yl)piperidin-1-yl)(6-morpholinopyridin-3-yl)methanone] | 0.0001 to 10 | 0.0001 to 10 | 0.0001 to 10 | 0.0001 to 10
14 | CC(C)(C1CCN(C(=O)c2ccccc2Cl)CC1)C(O)c1cc(Cl)cc2cn[nH]c12 (stereo not drawn) [Compound P-0368, (4-(1-(5-chloro-1H-indazol-7-yl)-1-hydroxy-2-methylpropan-2-yl)piperidin-1-yl)(2-chlorophenyl) methanone] | 0.0001 to 10 | 0.0001 to 10 | 0.0001 to 10 | 0.0001 to 10
15 | CC(C)(C1CCN(C(=O)c2c(F)cccc2Cl)CC1)C(O)c1cc(Cl)cc2cn[nH]c12 (stereo not drawn) [Compound P-0369, (4-(1-(5-chloro-1H-indazol-7-yl)-1-hydroxy-2-methylpropan-2-yl)piperidin-1-yl)(2-chloro-6-fluorophenyl) methanone] | 0.0001 to 10 | 0.0001 to 10 | 0.0001 to 10 | 0.0001 to 10
16 | CC(C)(C)OC(=O)N1CCC(C(C)(C)C(O)c2c(F)c(Cl)cc3cn[nH]c23)CC1 (stereo not drawn) [Compound P-0370, tert-butyl 4-(1-(5-chloro-6-fluoro-1H-indazol-7-yl)-1-hydroxy-2-methylpropan-2-yl)piperidine-1-carboxylate] | 0.0001 to 10 | 0.0001 to 10 | 0.0001 to 10 | 0.0001 to 10

Next, values leading:

Row | IC50 [1] [µM] | IC50 [2] [µM] | IC50 [3] [µM] | IC50 [4] [µM] | Compound
17 | 0.0001 to 10 | 10 to 100 | 0.0001 to 10 | > 10 | OC1(c2cc(Cl)cc3[nH]ncc23)CC2(CCCCC2)C1 [Compound P-0371, 2-(6-chloro-1H-indazol-4-yl)spiro[3.5] nonan-2-ol]
18 | > 10 | > 200 | 0.0001 to 10 | 0.0001 to 10 | OC1(c2cc(Cl)cc3[nH]ncc23)CC2(CCOCC2)C1 [Compound P-0372, 2-(6-chloro-1H-indazol-4-yl)-7-oxaspiro[3.5] nonan-2-ol]
19 | 0.0001 to 10 | 0.0001 to 10 | 0.0001 to 10 | 0.0001 to 10 | C[C@@H](NC(=O)N1CCC(C(C)(C)C(O)c2cc(Cl)cc3cn[nH]c23)CC1)c1ccccc1 (stereo partly drawn) [Compound P-0373, 4-(1-(5-chloro-1H-indazol-7-yl)-1-hydroxy-2-methylpropan-2-yl)-N-((R)-1-phenylethyl) piperidine-1-carboxamide]
20 | 0.0001 to 10 | 0.0001 to 10 | 0.0001 to 10 | 0.0001 to 10 | CCC(=O)N1CCC(C(F)(F)C(O)c2c(F)c(Cl)cc3cn[nH]c23)CC1 (stereo not drawn) [Compound P-0374, 1-(4-(2-(5-chloro-6-fluoro-1H-indazol-7-yl)-1,1-difluoro-2-hydroxyethyl)piperidin-1-yl) propan-1-one]
21 | 0.0001 to 10 | 0.0001 to 10 | 0.0001 to 10 | 0.0001 to 10 | CC(C)CC(=O)N1CCC(C(F)(F)C(O)c2c(F)c(Cl)cc3cn[nH]c23)CC1 (stereo not drawn) [Compound P-0375, 1-(4-(2-(5-chloro-6-fluoro-1H-indazol-7-yl)-1,1-difluoro-2-hydroxyethyl)piperidin-1-yl)-3-methylbutan-1-one]
22 | 0.0001 to 10 | 0.0001 to 10 | 0.0001 to 10 | 0.0001 to 10 | COCC(=O)N1CCC(C(F)(F)C(O)c2c(F)c(Cl)cc3cn[nH]c23)CC1 (stereo not drawn) [Compound P-0376, 1-(4-(2-(5-chloro-6-fluoro-1H-indazol-7-yl)-1,1-difluoro-2-hydroxyethyl)piperidin-1-yl)-2-methoxyethan-1-one]
23 | 0.0001 to 10 | 0.0001 to 10 | 0.0001 to 10 | 0.0001 to 10 | CC(C)C(=O)N1CCC(C(F)(F)C(O)c2c(F)c(Cl)cc3cn[nH]c23)CC1 (stereo not drawn) [Compound P-0377, 1-(4-(2-(5-chloro-6-fluoro-1H-indazol-7-yl)-1,1-difluoro-2-hydroxyethyl)piperidin-1-yl)-2-methylpropan-1-one]
24 | 0.0001 to 10 | 0.0001 to 10 | 0.0001 to 10 | 0.0001 to 10 | O=C(NCC(F)(F)F)N1CCC(C(F)(F)C(O)c2c(F)c(Cl)cc3cn[nH]c23)CC1 (stereo not drawn) [Compound P-0378, 4-(2-(5-chloro-6-fluoro-1H-indazol-7-yl)-1,1-difluoro-2-hydroxyethyl)-N-(2,2,2-trifluoroethyl) piperidine-1-carboxamide]

— patent US10508085B2, “Compounds and methods for IDO and TDO modulation, and indications therefor” (Plexxikon Inc., priority 2016, dated 2019)
